Values after ≈ are worked out from the molar mass of the structure shown. Where a name gives a salt, the structure may show the parent alone. Read-outs that look alike come from different tables or passages of the source.
Experiments:
Type in all cases: cell-based
[1] = system: B. subtilis; experiment: MIC on (nutrient) agar; details: Bacillus subtilis; B. subtilis, agar; read-out: minimum inhibitory concentration (MIC)
[2] = system: Salmonella typhi; experiment: MIC on nutrient agar; details: Salmonella enterica, read-out: minimum inhibitory concentration (MIC)
[3] = system: Proteus mirabilis C977; experiment: MIC on nutrient agar
[4] = system: β-Haemolytic Strep. CN10; experiment: MIC on (nutrient) agar; details: β-Haemolytic Strep. CN10, agar; read-out: minimum inhibitory concentration (MIC)
[5] = system: Shigella sonnei; experiment: MIC on nutrient agar; details: read-out: minimum inhibitory concentration (MIC)
[6] = system: E. coli JT 1; experiment: MIC on nutrient agar; details: Escherichia coli
[7] = system: Klebsiella aerogenes A; experiment: MIC on nutrient agar; details: read-out: minimum inhibitory concentration (MIC)
[8] = system: Staph. aureus Russell; experiment: MIC on (nutrient) agar; details: Staphylococcus aureus; Staph. aureus Russell, agar; read-out: minimum inhibitory concentration (MIC)
[9] = system: Staph. aureus Oxford; experiment: MIC on (nutrient) agar; details: Staphylococcus aureus, read-out: minimum inhibitory concentration (MIC)
[10] = system: E. coli NCTC 10418; experiment: MIC on nutrient agar; details: Escherichia coli, NCTC10418; E. coli NCTC 10418, nutrient agar; read-out: minimum inhibitory concentration (MIC)
[11] = system: Strep. pneumoniae CN33; experiment: MIC on (nutrient) agar; details: Streptococcus pneumoniae, read-out: minimum inhibitory concentration (MIC)
[12] = Klebsiella aerogenes A, nutrient agar
[13] = Proteus mirabilis C977, nutrient agar, read-out: minimum inhibitory concentration (MIC)

CN(C(=O)C=Cc1ccccc1)C(=O)N[C@@H](C(=O)N[C@@H]1C(=O)N2C(C(=O)O)=C(Cc3cccnc3)CS[C@H]12)c1ccccc1 [Example 20]
MIC [1]: 32 µg/mL (≈ 52.3 µM) | MIC [2]: > 125 µg/mL | MIC ([3]; Proteus mirabilis, C977, read-out: minimum inhibitory concentration (MIC)): > 125 µg/mL | MIC [4]: 0.25 µg/mL (≈ 0.409 µM) | MIC [5]: 63 µg/mL (≈ 103 µM) | MIC ([6]; JT1, read-out: minimum inhibitory concentration (MIC)): 125 µg/mL (≈ 204 µM) | MIC [7, 12]: 63 µg/mL (≈ 103 µM) | MIC [8]: 63 µg/mL (≈ 103 µM) | MIC [9]: 4 µg/mL (≈ 6.54 µM)

NC(C(=O)N[C@@H]1C(=O)N2C(C(=O)O)=C(Cc3cccnc3)CS[C@H]12)c1cccs1 (stereo partly drawn) [Example 15, 7-β-[(dl)-α-Amino-2-thienylacetamido]-3-(3-pyridylmethyl)-3-cephem-4-carboxylic acid Di-trifluoroacetic acid salt]
MIC [1]: 1.25 µg/mL | MIC [2]: 2.5 µg/mL | MIC [3, 13]: 12.5 µg/mL | MIC [4]: 0.5 µg/mL | MIC [5]: 5 µg/mL | MIC ([6]; JT1, E. coli JT 1, nutrient agar, read-out: minimum inhibitory concentration (MIC)): 12.5 µg/mL | MIC [7, 12]: 5 µg/mL | MIC [8]: 5 µg/mL | MIC [9]: 0.5 µg/mL

O=C(COc1ccccc1)N[C@@H]1C(=O)N2C(C(=O)O)=C(Cc3cccnc3)CS[C@H]12 [Example 9, 7β-phenoxyacetamido-3(3-pyridylmethyl)-3-cephem-4-carboxylic acid trifluoroacetic acid salt]
MIC [10]: 500 µg/mL | MIC [11]: 0.12 µg/mL | MIC [1]: 0.25 µg/mL | MIC [2]: 500 µg/mL | MIC [3, 13]: 125 µg/mL | MIC [4]: 0.12 µg/mL | MIC [5]: 500 µg/mL | MIC [7, 12]: 500 µg/mL | MIC [8]: 0.12 µg/mL | MIC [9]: 0.02 µg/mL

N[C@@H](C(=O)N[C@@H]1C(=O)N2C(C(=O)O)=C(Cc3cccnc3)CS[C@H]12)c1ccc(O)cc1 [Example 13, 7-(2-Amino-2-p-hydroxyphenylacetamido)-4-carboxy-3-(3-pyridylmethyl) ceph-3-em bis-trifluoroacetic acid salt]
MIC [10]: 5 µg/mL | MIC [11]: 0.12 µg/mL | MIC [1]: 0.25 µg/mL | MIC [2]: 1.25 µg/mL | MIC [3, 13]: 5 µg/mL | MIC [4]: 0.12 µg/mL | MIC [5]: 5 µg/mL | MIC ([7]; Klebsiella aerogenes): 1.25 µg/mL | MIC [8]: 2.5 µg/mL | MIC [9]: 0.25 µg/mL

O=C(O)C1=C(Cc2cccnc2)CS[C@@H]2[C@H](NC(=O)[C@H](O)c3ccccc3)C(=O)N12 [Example 3, 7β(D-α-hydroxyphenylacetamido)-3(3-pyridylmethyl)-3-cephem-4-carboxylic acid trifluoroacetate salt]
MIC [10]: 2.5 µg/mL | MIC [11]: 0.5 µg/mL | MIC [1]: 0.12 µg/mL | MIC [2]: 2.5 µg/mL | MIC [3, 13]: 5 µg/mL | MIC [4]: 0.25 µg/mL | MIC [5]: 2.5 µg/mL | MIC [7, 12]: 2.5 µg/mL | MIC [8]: 12.5 µg/mL | MIC [9]: 0.25 µg/mL

CCSCC(=O)N[C@@H]1C(=O)N2C(C(=O)O)=C(Cc3cccnc3)CS[C@H]12 [Example 10, 7β-ethylthioacetamido-3(3-pyridylmethyl)-3-cephem-4-carboxylic acid trifluoroacetic acid salt]
MIC [10]: 50 µg/mL | MIC [11]: 0.25 µg/mL | MIC [1]: 0.5 µg/mL | MIC [2]: 50 µg/mL | MIC [3, 13]: 25 µg/mL | MIC [4]: 0.12 µg/mL | MIC [5]: 50 µg/mL | MIC [7, 12]: 50 µg/mL | MIC [8]: 1.25 µg/mL | MIC [9]: 0.05 µg/mL

N[C@@H](C(=O)N[C@@H]1C(=O)N2C(C(=O)O)=C(Cc3cccnc3)CS[C@H]12)c1ccccc1 [Example 4, 7β(D-α-aminophenylacetamido)-3(3-pyridylmethyl)-3-cephem-4-carboxylic acid di-trifluoroacetate salt]
MIC [10]: 2.5 µg/mL | MIC [11]: 0.5 µg/mL | MIC [1]: 0.25 µg/mL | MIC [2]: 1.25 µg/mL | MIC [3, 13]: 5 µg/mL | MIC [4]: 0.25 µg/mL | MIC [5]: 2.5 µg/mL | MIC [7, 12]: 2.5 µg/mL | MIC [8]: 2.5 µg/mL | MIC [9]: 0.25 µg/mL

C[n+]1cccc(CC2=C(C(=O)O)N3C(=O)[C@@H](NC(=O)[C@H](O)c4ccccc4)[C@H]3SC2)c1 [Example 5, 7β(D-α-hydroxyphenylacetamide)-3(3-pyridylmethyl)-3-cephem-4-carboxylic acid metho-trifluoroacetate]
MIC [10]: 50 µg/mL | MIC [11]: 0.12 µg/mL | MIC [1]: 0.25 µg/mL | MIC [2]: 50 µg/mL | MIC [3, 13]: 125 µg/mL | MIC [4]: 0.02 µg/mL | MIC [5]: 50 µg/mL | MIC [7, 12]: 50 µg/mL | MIC [8]: 5 µg/mL | MIC [9]: 0.12 µg/mL

Source: patent US3966718A, “7-β-Acylamino-ceph-3-ems and salts and esters therefor” (Beecham Group Limited, priority 1973, dated 1976)
